Experimental data reported in patent US20090238852A1, “METHODS FOR CONTROLLING INTRACELLULAR CALCIUM LEVELS ASSOCIATED WITH AN ISCHEMIC EVENT” (University of Utah Research Foundation, priority 2008, published 2009).

Tests used:
[1] = tested on: NCX; experiment: NCX current (INCX) voltage clamp in intact isolated ventricular myocytes; type: cell-based, rabbit; conditions: ODSH 100 μg/ml; approximately −60 mV to +50 mV; n = 5; FIG. 7
From the text: The direct effects of ODSH on NCX were further measured by means of voltage clamp studies in intact isolated rabbit ventricular myocytes. […] This finding was initially surprising but is consistent with a previous report that heparin and heparan sulfate disaccharides can stimulate Ca^2+ extrusion by NCX in smooth muscle cell lines (Shinjo et al, 2002). […] We therefore studied the effects of ODSH on Na^+ loading.

[2] = tested on: pigs, 75 min LAD balloon occlusion and 3 h reperfusion; experiment: Closed chest porcine model of cardiac ischemia/reperfusion: infarct size (NEC/AAR); type: in vivo, pig; conditions: repeated at 90 min reperfusion
From the text: To study the utility of 2-O, 3-O desulfated heparin (ODSH) in reducing ischemic tissue injury from injurious Ca^++ overload, a closed chest porcine model of cardiac ischemia was used. The study was designed to determine if previous findings indicating the protective effect of ODSH in reducing myocardial infarction reperfusion injury in open chest dogs were reproducible in an animal model of ischemia/reperfusion injury more relevant to humans. […] Yorkshire-cross pigs (Palmetto Research Swine, Reevesville, S.C.) of either sex, weighing 25-35 kg, were used for the experiment was employed. Animals were premedicated with an intramuscular injection of ketamine (30 mg/kg), acepromazine (1.1 mg/kg), and atropine (0.05 mg/kg). Pigs were induced with an IV injection of thiopental (10 mg/kg) and maintained with continuous inhalation of isoflurane (1-1.5%). Aspirin (81 mg) was administered by IV prior to the experiment.
Arterial access was achieved via bilateral femoral artery cut-downs for the insertion of 8F sheaths. Central venous and carotid access was achieved via a neck incision to expose the external jugular vein and common carotid artery. […] Baseline cardiodynamic and hemodynamic data were measured using a solid state transducer-tipped catheter in the left ventricle (Millar Instruments, Houston, Tex.) to measure left ventricular pressure, and a fluid-filled transducer connected to the side port of the femoral artery sheath to measure peripheral arterial pressure. Approximately 3-4 million neutron-activated microspheres (BioPhysics Assay Laboratory, Inc, Worcester, Ma) (15 μm) were delivered through a pig-tail catheter into the left ventricle over a 30 second period, to quantify regional myocardial blood flow (RMBF). […] Balloon occlusion time was 75 minutes with coronary occlusion confirmed by contrast angiography, ST segment changes on electrocardiography, and quantitatively confirmed by microspheres delivered at the end of ischemia, as described above. […]

[3] = human, in vivo
Method: A study was performed in eight (8) healthy adult male and female subjects to assess the effects of a bolus dose and 72 hour infusion of 2-O, 3-O desulfated heparin. The study was a Phase I study with a three day treatment period. Doses were adjusted to maintain an aPTT level of 40-45 seconds. Subjects were between the ages of 18 and 60, were not pregnant, and were normal in body weight. They all had normal coagulation function and hemoglobin values at baseline.
Subjects received an initial bolus of 8 mg/kg of ODSH over 15 minutes, followed by 72 hours continuous infusion beginning at 0.58 mg/kg/hr. For each subject ODSH as a 50 mg/ml formulation was diluted with normal saline and administered as a bolus infused over 15 minutes containing the calculated amount of ODSH the subject was to receive, followed by infusion of ODSH diluted in saline. The infusion dose was adjusted to maintain an aPTT of 40-45 seconds. Immediately before infusion and after the start of each infusion, blood was drawn at periodic times (over a total 72 hour period) to monitor the effect of infusion on the following laboratory studies: activated partial thromboplastin time (aPTT), prothrombin time (PT), activated clotting time (ACT), and ODSH plasma level. Serum chemistries and a complete blood count were checked immediately before infusion and again periodically for up to 240 hours later. Using values for aPTT and ODSH levels, pharmacokinetic parameters were calculated by noncompartmental methods using a commercial software program (PhAST 2.3-001). The following pharmacokinetic parameters were calculated as above: Cmax; Kel; tmax; AUC O-t; AUCinf, t1/2; CL; and Vdss.

2-O, 3-O desulfated heparin [ODSH]
effect on NCX current (INCX) [1]: significant stimulation of exchange | infarct size (NEC/AAR) compared to control ([2]; ODSH 5 mg/kg IV bolus 2 min before balloon deflation): No significant reduction in infarct size | infarct size (NEC/AAR) relative to control ([2]; ODSH 15 mg/kg IV bolus 2 min before balloon deflation): significant infarct size reduction | infarct size (NEC/AAR) relative to control ([2]; ODSH 45 mg/kg IV bolus 2 min before balloon deflation): significant infarct size reduction | CL [3]: 0.17 mL/min/kg | Vdss [3]: 0.0489 L/kg | t1/2 [3]: 3.3 h | tmax [3]: 0.5 h | AUC, range across subjects ([3]; 8 mg/kg): 3,528-4,694 μg hr/mL | CL, range across subjects ([3]; 8 mg/kg): 0.147 to 0.197 mL/min/kg | Cmax, range across subjects ([3]; 8 mg/kg): 131 to 192 µg/mL | Vdss, range across subjects ([3]; 8 mg/kg): 0.0237 to 0.0662 L/kg | t1/2, range across subjects ([3]; 8 mg/kg): 1.9 to 4.4 h
